Starred links: 1 amine or outer side, 2 acyl side, 3 side chain; linkers in the order of their positions; H or OH if unused. Positions of bridges follow the written chain, without caps; N, C: chain ends. Non-standard residues stand in square brackets, D forms with d. Residues, ends and D or L forms follow the SMILES beside them. *: point of attachment. hPhe(3-Cl-4-CF3) = N[C@@H](CCc1ccc(C(F)(F)F)c(Cl)c1)C(=O)O; hPhe(3-F,4-CF3) = N[C@@H](CCc1ccc(C(F)(F)F)c(F)c1)C(=O)O; X38 = CN([C@@H](Cc1cccc(OC(F)(F)F)c1)C(=O)[*:2])[*:1]; hPhe(4-CF3) = N[C@@H](CCc1ccc(C(F)(F)F)cc1)C(=O)O; Thiomorpholino(1,1-dioxo) = O=S1(=O)CCN(*)CC1; NMePhe(4-Cl) = CN[C@@H](Cc1ccc(Cl)cc1)C(=O)O; NMePhe(4-Me) = CN[C@@H](Cc1ccc(C)cc1)C(=O)O; NMeGly(cPent) = CN[C@H](C(=O)O)C1CCCC1; Phe(3-I) = N[C@@H](Cc1cccc(I)c1)C(=O)O; Phe(4-Me) = Cc1ccc(C[C@H](N)C(=O)O)cc1; NMe4Pal = CN[C@@H](Cc1ccncc1)C(=O)O; NMeCha = CN[C@@H](CC1CCCCC1)C(=O)O; NMeAllylGly = C=CC[C@H](NC)C(=O)O; NMeChg = CN[C@H](C(=O)O)C1CCCCC1; NMeI = CC[C@H](C)[C@H](NC)C(=O)O; NMeD = CN[C@@H](CC(=O)O)C(=O)O; CH2CONHtBu = CC(C)(C)NC(=O)C*; NMeL = CN[C@@H](CC(C)C)C(=O)O; NMeV = CN[C@H](C(=O)O)C(C)C; d(β3hA) = C[C@@H](N)CC(=O)O; NMeS = CN[C@@H](CO)C(=O)O; NMeA = CN[C@@H](C)C(=O)O; NMeAib = CNC(C)(C)C(=O)O; Piperidide = C1CCN(*)CC1; Pyrrolidide = C1CCN(*)C1; dNMeA = CN[C@H](C)C(=O)O; Ac5c = NC1(C(=O)O)CCCC1; Aze = O=C(O)[C@@H]1CCN1; Sar = CNCC(=O)O
target: T1, Kras and SOS1 (biotin-tagged human Kras loaded with GDP, His-tagged human SOS1) (Homo sapiens, UniProt P01116, G12D); assay: Protein-protein interaction inhibition between Kras and SOS1 (KrasGl2D-SOS PPI) using AlphaScreen; type: binding; conditions: AlphaScreen; biotin-tagged human Kras loaded with GDP, His-tagged human SOS1; read-out: KRAS G12D-SOS PPI IC50
T1 construct: made in house; host or cells: E. coli (stated for Kras only)
T1 sequence (P01116 1-188 isoform P01116-2 G12D): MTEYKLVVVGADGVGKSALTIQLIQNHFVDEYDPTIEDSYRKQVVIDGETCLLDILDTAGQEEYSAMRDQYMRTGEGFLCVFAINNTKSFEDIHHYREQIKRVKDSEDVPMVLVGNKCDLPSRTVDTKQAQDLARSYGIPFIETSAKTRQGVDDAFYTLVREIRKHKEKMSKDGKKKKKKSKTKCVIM
In short: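 Read-out is acceptor-bead light at 520-620 nm, arising when 680 nm-irradiated nickel donor beads pass singlet oxygen to streptavidin acceptors. The bead pair links His-tagged SOS1 with biotin-tagged, GDP-bound Kras from E. coli.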

Compound | IC50 [nM]
CC[C@H](C)[C@@H]1NC(=O)[C@H](C)N(C)C(=O)C[C@@H](C(=O)N2CCCC2)NC(=O)[C@H](CC(C)C)N(C)C(=O)[C@H](COCC(=O)NC(C)(C)C)N(C)C(=O)[C@H](CC(C)C)NC(=O)[C@H](CCc2ccc(C(F)(F)F)cc2)NC(=O)CN(C)C(=O)[C@H](Cc2ccc(Cl)cc2)N(C)C(=O)CN(C)C(=O)CN(C)C1=O [Compound 889] ([NMeA]I[Sar][Sar][NMePhe(4-Cl)][Sar][hPhe(4-CF3)]L[NMeS](CH2CONHtBu)[NMeL]D-Pyrrolidide; lactam N-11) | 70
CC[C@H](C)[C@@H]1NC(=O)[C@H](CC(C)C)N(C)C(=O)C[C@@H](C(=O)N2CCCCC2)N(C)C(=O)[C@H](CC(C)C)NC(=O)C(C)(C)N(C)C(=O)[C@H](Cc2ccc(C)cc2)NC(=O)[C@H](Cc2cccc(I)c2)NC(=O)CN(C)C(=O)[C@H](CC2CCCCC2)N(C)C(=O)CN(C)C(=O)CN(C)C1=O [Compound 166] ([NMeL]I[Sar][Sar][NMeCha][Sar][Phe(3-I)][Phe(4-Me)][NMeAib]L[NMeD]-Piperidide; lactam N-11) | 21
C=CC[C@H]1C(=O)NC2(CCCC2)C(=O)N(C)[C@@H](C2CCCCC2)C(=O)N(C)[C@H](C(=O)N2CCCCC2)CC(=O)N(C)[C@@H](CC(C)C)C(=O)N[C@@H]([C@@H](C)CC)C(=O)N(C)CC(=O)N(C)CC(=O)N(C)[C@@H](CC2CCCCC2)C(=O)N(C)CC(=O)N[C@@H](CCc2ccc(C(F)(F)F)c(Cl)c2)C(=O)N1C [Compound 1449] ([NMeL]I[Sar][Sar][NMeCha][Sar][hPhe(3-Cl-4-CF3)][NMeAllylGly][Ac5c][NMeChg][NMeD]-Piperidide; lactam N-11) | 14
CC[C@H](C)[C@@H]1NC(=O)[C@H](CC(C)C)N(C)C(=O)C[C@@H](C)NC(=O)[C@H](C2CCCC2)N(C)C(=O)C2(CCCC2)NC(=O)[C@@H]2CCCN2C(=O)[C@H](CCc2ccc(C(F)(F)F)c(Cl)c2)NC(=O)[C@@H](C)N(C)C(=O)[C@H](Cc2ccc(C)cc2)N(C)C(=O)CN(C)C(=O)CN(C)C1=O [Compound 1521] (cyclo([Ac5c][NMeGly(cPent)][d(β3hA)][NMeL]I[Sar][Sar][NMePhe(4-Me)][dNMeA][hPhe(3-Cl-4-CF3)]P)) | 110
CC[C@H](C)[C@@H]1NC(=O)[C@H](CC(C)C)N(C)C(=O)C[C@@H](C(=O)N(C)C)N(C)C(=O)[C@H]([C@@H](C)CC)N(C)C(=O)C2(CCCC2)NC(=O)[C@H](Cc2cccc(OC(F)(F)F)c2)N(C)C(=O)[C@H](CCc2ccc(C(F)(F)F)c(Cl)c2)NC(=O)CN(C)C(=O)[C@H](Cc2ccc(C)cc2)N(C)C(=O)[C@@H]2CCN2C(=O)[C@H](C)N(C)C1=O [Compound 1970] ([NMeL]I[NMeA][Aze][NMePhe(4-Me)][Sar][hPhe(3-Cl-4-CF3)][X38][Ac5c][NMeI][NMeD]-NMe2; lactam N-11) | 52
CC[C@H](C)[C@@H]1NC(=O)[C@H](CC(C)C)N(C)C(=O)C[C@@H](C(=O)N2CCCC2)NC(=O)[C@H](CC(C)C)NC(=O)C(C)(C)N(C)C(=O)[C@H](CC(C)C)NC(=O)[C@H](CCc2ccc(C(F)(F)F)c(F)c2)NC(=O)CN(C)C(=O)[C@H](Cc2ccc(Cl)cc2)N(C)C(=O)CN(C)C(=O)CN(C)C1=O [Compound 96] ([NMeL]I[Sar][Sar][NMePhe(4-Cl)][Sar][hPhe(3-F,4-CF3)]L[NMeAib]LD-Pyrrolidide; lactam N-11) | 220
CC[C@H](C)[C@@H]1NC(=O)[C@H](CC(C)C)N(C)C(=O)C[C@@H](C(=O)N2CCS(=O)(=O)CC2)NC(=O)[C@H](C(C)C)N(C)C(=O)C2(CCCC2)NC(=O)[C@@H]2CCCN2C(=O)[C@H](CCc2ccc(C(F)(F)F)c(Cl)c2)NC(=O)CN(C)C(=O)[C@H](CC2CCCCC2)N(C)C(=O)[C@@H]2CCN2C(=O)[C@H](C)N(C)C1=O [Compound 1349] ([NMeL]I[NMeA][Aze][NMeCha][Sar][hPhe(3-Cl-4-CF3)]P[Ac5c][NMeV]D-{Thiomorpholino(1,1-dioxo)}; lactam N-11) | 150
CC[C@H](C)[C@@H]1NC(=O)[C@H](CC2CCCCC2)N(C)C(=O)C[C@@H](C)NC(=O)[C@H](C(C)C)N(C)C(=O)C2(CCCC2)NC(=O)[C@@H]2CCCN2C(=O)[C@H](CCc2ccc(C(F)(F)F)c(Cl)c2)NC(=O)CN(C)C(=O)[C@H](CC2CCCCC2)N(C)C(=O)[C@@H]2CCN2C(=O)[C@H](C)N(C)C1=O [Compound 38] (cyclo([Ac5c][NMeV][d(β3hA)][NMeCha]I[NMeA][Aze][NMeCha][Sar][hPhe(3-Cl-4-CF3)]P)) | 160
CC[C@H](C)[C@@H]1NC(=O)[C@H](CC(C)C)N(C)C(=O)C[C@@H](C(=O)N(C)C)N(C)C(=O)[C@H]([C@@H](C)CC)N(C)C(=O)C2(CCCC2)NC(=O)[C@H](Cc2ccncc2)N(C)C(=O)[C@H](CCc2ccc(C(F)(F)F)c(Cl)c2)NC(=O)CN(C)C(=O)[C@H](Cc2ccc(C)cc2)N(C)C(=O)[C@@H]2CCN2C(=O)[C@H](C)N(C)C1=O [Compound 1962] ([NMeL]I[NMeA][Aze][NMePhe(4-Me)][Sar][hPhe(3-Cl-4-CF3)][NMe4Pal][Ac5c][NMeI][NMeD]-NMe2; lactam N-11) | 1.4
